Data taken from the NIST ThermoML archive (doi:10.1016/j.jct.2011.12.024).
Numbers after ± are expanded uncertainties.

Experiments:
[1] = 101.33 kPa, Liquid, Vibrating tube method
[2] = refractive index (other wavelength) (dimensionless); settings: 101.33 kPa, Liquid, Wavelength=632.8 nm, Standard Abbe refractometry
[3] = refractive index (other wavelength) (dimensionless); xn = mol fraction of the nth substance listed; settings: 101.33 kPa, Liquid, Wavelength=632.8 nm, Standard Abbe refractometry

COC(=O)CCCCC(=O)OC [dimethyl 1,6-hexanedioate]
Settings	mass density [kg/m3]	refractive index
[1], 281.15 K	1073.09 ± 0.29	–
[1], 282.15 K	1072.12 ± 0.29	–
[1], 283.15 K	1071.14 ± 0.29	–
[1], 284.15 K	1070.17 ± 0.29	–
[1], 285.15 K	1069.19 ± 0.28	–
[1], 286.15 K	1068.21 ± 0.28	–
[1], 287.15 K	1067.24 ± 0.28	–
[1], 288.15 K	1066.26 ± 0.28	–
[1], 289.15 K	1065.29 ± 0.28	–
[1], 290.15 K	1064.32 ± 0.28	–
[1], 291.15 K	1063.34 ± 0.28	–
[1], 292.15 K	1062.37 ± 0.28	–
[1], 293.15 K	1061.39 ± 0.28	–
[1], 294.15 K	1060.42 ± 0.28	–
[1], 295.15 K	1059.45 ± 0.28	–
[1], 296.15 K	1058.47 ± 0.28	–
[1], 297.15 K	1057.5 ± 0.28	–
[1], 298.15 K	1056.52 ± 0.28	–
[1], 299.15 K	1055.55 ± 0.27	–
[1], 300.15 K	1054.58 ± 0.27	–
[1], 301.15 K	1053.6 ± 0.27	–
[1], 302.15 K	1052.63 ± 0.27	–
[1], 303.15 K	1051.65 ± 0.27	–
[1], 304.15 K	1050.68 ± 0.27	–
[1], 305.15 K	1049.7 ± 0.27	–
[1], 306.15 K	1048.73 ± 0.27	–
[1], 307.15 K	1047.75 ± 0.27	–
[1], 308.15 K	1046.78 ± 0.27	–
[2], 283.48 K	–	1.4312 ± 0.0004
[2], 284.37 K	–	1.4309 ± 0.0004
[2], 285.28 K	–	1.4305 ± 0.0004
[2], 286.1 K	–	1.4302 ± 0.0004
[2], 286.92 K	–	1.4298 ± 0.0004
[2], 287.65 K	–	1.4296 ± 0.0004
[2], 288.49 K	–	1.4292 ± 0.0004

COC(=O)CCCCC(=O)OC [dimethyl 1,6-hexanedioate] + CCCCCC
[3], 289.28 K
Settings	refractive index
x1 = 0.101	1.3821 ± 0.0006
x1 = 0.202	1.3884 ± 0.0005
x1 = 0.301	1.3944 ± 0.0005
x1 = 0.394	1.3998 ± 0.0005
x1 = 0.5	1.4056 ± 0.0005
x1 = 0.599	1.4107 ± 0.0005
x1 = 0.706	1.416 ± 0.001
x1 = 0.799	1.4203 ± 0.0005
x1 = 0.882	1.4239 ± 0.0005

CCCCCCC [heptane] + COC(=O)CCCCC(=O)OC
[3], x2 = 0
Settings	refractive index
289.62 K	1.3883 ± 0.0004
290.68 K	1.3878 ± 0.0004
291.71 K	1.3873 ± 0.0004
292.7 K	1.3868 ± 0.0004
293.74 K	1.3863 ± 0.0004
294.71 K	1.3858 ± 0.0004
295.77 K	1.3853 ± 0.0004

CCCCCC [hexane]
[2]
Settings	refractive index
283.72 K	1.3789 ± 0.0004
284.52 K	1.3785 ± 0.0004
285.35 K	1.3781 ± 0.0004
286.21 K	1.3776 ± 0.0004
287.1 K	1.3771 ± 0.0004
287.94 K	1.3767 ± 0.0004
288.71 K	1.3762 ± 0.0004
